# Source: patent US20010034362A1, “Pyrrolidine derivatives for vision and memory disorders” (Guilford Pharmaceuticals Inc., priority 1998, published 2001)
# Marks after values point to notes of the source that are not given here.
# Columns and labels:
# [1] = test system: retinal ganglion cells and optic nerve axons; experiment: In vivo retinal ganglion cell and optic nerve axon tests after optic nerve transection, 14 or 28 day treatment, sacrifice at 90 days; design: species or system Sprague Dawley rats; settings: for RGC Counts: mean density ± SEM of Fluoro-gold labeled RGC in 400 μm × 400 μm gridfields; for ON Axon density: mean ± SEM of RT97 labeled axons in 200 μm × 200 μm region; for increased ON axon density: adjusted for optic nerve diameter; for ON axon Count: calculated by multiplying axonal density by ON area; for Proximal optic nerve myclin basic protein Density: ± SEM, 20X analysis of % areal coverage
# From the text: Complete transection of the optic nerve 5 mm from the eyeball produces massive degeneration of retinal ganglion cells, representing loss of >87% of the normal ganglion cell population 90 days after the injury (Table 1). Few spared fluorogold pre labeled ganglion cells are present in vehicle treated cases (large-white figures) among a population of small microglia that digest the debris of the degenerating cells and take up the fluorogold label (FIG. 3A).
# 90 days after transection few ganglion cell axons remain within the optic nerve (FIG. 4B), representing only 5.6% of the normal population. The loss of axons reflects both the death of retinal ganglion cells and the regression or “dying back” of the axons of ˜70% of the small surviving ganglion cell population into the retina itself (Table 1).
# Myelin basic protein immunchistochemistry labels fascicles (darker labeled ‘islands’) of myelinated axons in the normal optic nerve (FIG. 6A, upper left). 90 days after transection extensive degeneration of myelin is evident in vehicle treated cases, characterized by the loss of fascicular organization and the appearance of numerous large dense degenerating myelin figures (FIG. 6B, upper right).
# Complete transection of the optic nerve leads to degeneration of the distal segments (axon fragments disconnected from the ganglion cell bodies), and the degeneration of their myelin sheaths.
# All eyes and optic nerves stumps were removed.
# [2] = Clearance (Table V comments); assay type: in vitro ADME
# [3] = test system: retinal ganglion cell axons; experiment: Protection of retinal ganglion cell axons from degeneration following optic nerve transection (Table V); assay type: in vivo; settings: ± SEM
# From the text: Efficacy of representative compounds from different immunophilin ligand series in protecing retinal gangiou cell axons from degeneration following optic nerve transection is set forth in Table V.
# [4] = test system: retinal ganglion cells, optic nerve axons and myelin; experiment: Retinal ischemia by raised intraocular pressure, examined 28 days after the episode; assay type: in vivo, adult rats
# From the text: Retinal ganglion cells were retrogradely labeled in adult rats by bilateral injection of fluorogold in their lateral geniculate nuclei. Labeled ganglion cells in the normal rat retina appear as white profiles against the dark background (FIG. 1A). Complete retinal ischemia was produced by infusing normal saline solution into the retinal vitreous cavity of each eye until the intraocular pressure exceeded arterial blood pressure. 28 days after the ischemic episode extensive degeneration of retinal ganglion cell was evidenced by massive reduction in the density of fluorogold labeled cells (FIG. 1B).
# Optic nerves from vehicle treated cases examined 28 days after a 1 hour retinal ischemic episode are characterized by a decreased density of optic nerve axons and the appearance of numerous degenerating myelin figures (bright white filled circles).
# [5] = test system: retina; experiment: Streptozotocin induced diabetes, retinal neovascularization and neuronal loss; assay type: in vivo
# [6] = test system: retinal ganglion cells; experiment: Example 17: optic nerve transection, GPI-1046 for 28 days, sacrifice at 90 days; assay type: in vivo, Sprague Dawley rats; settings: 10 mg/kg/day s.c. for 28 days
# From the text: Transection of the mammalian optic nerve results in a brief period of abortive regeneration, but the majority of axotomized neurons die and the axons from many persisting ganglion cells die back beyond the optic nerve head.
# [7] = test system: streptozotocin-induced diabetic rat; experiment: Streptozotocin-induced diabetic sensory neuropathy, hot plate and tail flick; assay type: in vivo, Male Wistar rats; settings: lesioned animals treated for 6 weeks at 10 mg/kg s.c.
# Protocol: The procedure involved using Male Wistar rats which were given a single injection of streptozotocin (65 mg/kg i.v.). Blood glucose levels were determined weekly for the first three weeks and on the last week of the experiment. Animals were evaluated weekly for signs of sensory neuropathy using the conventional hot plate and tail flick apparatus test procedures.
# [8] = test system: aged mice; experiment: Morris watermaze, spatial learning and memory in aged rodents; assay type: in vivo, C57BL/6N-Nia mice; settings: aged impaired mice, 10 mg/kg daily, retention testing after 3 weeks of dosing
# From the text: The Morris watermaze is widely used for assessing spatial memory formation and retention in experimental animals. The test deoends on the animal's ability to utilize spatial visual information in order to locate a submerged escape platform in a water tank. It is important that the tank itself be as devoid of specific visual features as possible—thus, it is always circular in shape, the sides are kept smooth and in uniform dull colors, and the water is rendered opacue with nontoxic watercolour pigment or powdered milk. This is to ensure that the animal navigates only by the use of more distant visual cues, or by the use of intra-maze cues specifically provided by the experimenter. The animals' path, speed, and swim time are tracked with a ceiling camera for lacer computerized analysis. Over the course of several successive trials, spatial learning can therefore be defined as a drop of distance swum, or time elapsed, from placement in the tank until escape onto the invisible platform. The procedure involved using three-month old (young) and 18-19 month old male C57BL/6N-Nia (aged) mice which habituated to the well known and conventional Morris watermaze during a 4 trials/day, 3-4 day visible platform training phase. […] Swim Distances (cm) were analyzed in a 7×5 ANOVA including Groups and Blocks (1-5) as factors in the analysis, treating Blocks as a repeated measure.
# [9] = 14 days GPI 1046, 90 days after transection
# [10] = 28 days GPI 1046, 90 days after transection
# [11] = 28 day treatment beginning 8 weeks after onset of streptozotocin induced diabetes
structure (smiles),measurement,setting,value
"CCC(C)(C)C(=O)C(=O)N1CCC[C@H]1C(=O)OCCCc1cccnc1 [GPI 1046, 3-(3-pyridyl) -1-propyl (2s) -1-(3,3-dimethyl-1,2-dioxopentyl) -2-pyrrolidinecarboxylate]",RGC Counts,"[1]; 14 days GPI 1046 10 mg/kg/day sc, 90 days after transection",small but not significant increase
same,% RGCs Rescued,[1]; [9],5.3%
same,% surviving RGCs with ON axons,[1]; [9],33.6%
same,ON head area (% sham),[1]; [9],76%
same,Spared RGC population,[1]; [9],"20,275"
same,ON Axon density,[1]; [9],569 ± 23
same,increased ON axon density,[1]; 14 days GPI 1046,1.5X
same,ON axon Count,[1]; 14 days GPI 1046,6820
same,Distal optic nerve stump shrinkage,"[1]; 14 days GPI 1046, cross sectional area compared to sham control",did not protect against shrinkage of the distal stump
same,"Distal optic nerve myclin base protein Density, loss","[1]; 14 days GPI 1046, cross sectional area multiplied by myelin density",slightly increase the density of myelin
same,Proximal optic nerve myclin basic protein Density,[1]; 14 days GPI 1046,1.6 ± 3.0 SEM % recovery
same,RGC Counts,"[1]; 28 days GPI 1046 10 mg/kg/day sc, 90 days after transection",67.9 ± 5.8
same,% surviving RGCs with ON axons,[1]; [10],81.4%
same,ON head area (% sham),[1]; [10],95%*
same,Spared RGC population,[1]; [10],"28,096*"
same,ON Axon density,[1]; [10],"significant increase in the density of large, and particularly medium and small caliber optic nerve axons"
same,increased ON axon density,[1]; 28 days GPI 1046,5.0X
same,ON axon Count,[1]; 28 days GPI 1046,"22,861*"
same,"Distal optic nerve stump, less shrinkage","[1]; 28 days GPI 1046, cross sectional area compared to sham control",prevented cross sectional shrinkage
same,Proximal optic nerve myclin basic protein Density,[1]; 28 days GPI 1046,70 ± 6.3 SEM % recovery
same,protection of optic nerve axons,"[1]; first 14 days GPI 1046, proximal stump, 90 days after transection",5.3%
same,Clearance,[2],63.8 µL/min
same,RT97 + RGC axon density 14 days after ON transection (% ON axons rescued),[3],60.5% ± 3.9 SEM
same,protection of retinal ganglion cells (fluorogold labeled cell density),"[4]; 10 mg/kg s.c. 1 hour prior to ischemia and 10 mg/kg/day for next four days, 28 days after ischemia",noticeable protection of a large proportion of the vulnerable ganglion cell population
same,density of degenerating myelin figures,[4]; 28 days after 1 hour retinal ischemic episode,dramatically decreased
same,protection of optic nerve axons from ischemic degeneration,"[4]; 28 days after 1 hour retinal ischemic episode, toluidine blue staining",protected the majority of optic nerve axons from degeneration
same,loss of neurons in the INL and GCL,"[5]; 28 day treatment beginning 8 weeks after onset of diabetes, compared to streptozotocin/vehicle controls",appeared to decrease the loss of neurons in both the INL and GCL
same,"neovascularization in the PR, ONL, OPL and INL",[5]; [11],reduced neovascularization
same,neuronal loss in the ONL,[5]; [11],did not appear to protect against neuronal loss in the ONL
same,ganglion cell population spared (perikaryal neuroprotection),[6]; 90 days after transection,25%
same,preservation of axons in the proximal stump of the transected nerve,[6]; RT97 neurofilament immunohistochemistry,preserved the axons of virtually ali croteczed neurons
same,hot plate and tail flick latency,[7],improvement in latency
same,"spatial memory performance (swim distance, retention testing)",[8],significantly enhanced spatial memory performance
